The subject of the test is U87 cells. Kind of test: Competitive inhibition of integrin targeted transduction mediated by AAV2^N587+1/azido+RGD. Type of test: cell-based.

As to dibenzocyclooctyne [DIBO], the “competitive inhibition of DIBO-RGD coupling effect” value is “competitively inhibit”.

(Values after patent US10087217B2 (priority 2013, dated 2018).)
